Read-outs that look alike come from different tables or passages of the source.
Experiments:
Phase I dose escalation = type: in vivo, children; conditions: oral, days 1–5 every 28 days, VOR about one hour before TEM
medulloblastoma/PNETs = conditions: of 25 evaluable patients with medulloblastoma/PNETs; cited from earlier work
low-grade glioma = conditions: single-agent temozolomide, cited from earlier work
[1] = human, in vivo
clinical = conditions: human, in vivo, po
[2] = given continuously as a single daily dose; pediatric; cited from earlier work
[3] = systemically administered; cited from earlier work

SMILES | pediatric MTD and recommended phase II dosing for the combination of VOR and TEM (Phase I dose escalation) [mg/m^2/day] | Cmax ([1]; po, 300 mg/m2) | half-life ([1]; po, 300 mg/m2) | half-life (clinical; 230 mg/m2, Half-life) [h] | AUC(0-inf) (clinical; 300 mg/m2, AUC0-∞) [ng·h/mL] | Cmax (clinical; 300 mg/m2, Cmax) [ng/mL] | half-life (clinical; 300 mg/m2, Half-life) [h] | further results
Cn1nnc2c(C(N)=O)ncn2c1=O [TEM, Temozolomide] | 150 | – | – | – | – | – | – | complete or partial responses, patients (medulloblastoma/PNETs): 4; patients having prolonged stable disease (low-grade glioma; adults): 30%; response rates (low-grade glioma; adults): 50–60%; median progression-free survival (PFS) (low-grade glioma): 22–28 months
O=C(O)CCC(=O)Nc1ccccc1 [4-anilino-4-oxobutanoic acid, 4-anilino-4-oxobutanoic acid] | – | 814 (588 – 832) ng/ml | 9.19 (6.49 – 11.6) hrs | 10.4 | 7490 | 750 | 9.18 | AUC0-∞ ([1]; po, 300 mg/m2): 9590 (7150 – 16600) ng/ml*hr; Tmax ([1]; po, 300 mg/m2): 2.00 (0.88 – 6.00) hrs; AUC(0-inf) (clinical; 230 mg/m2, AUC0-∞): 6900 ng·h/mL; Cmax (clinical; 230 mg/m2, Cmax): 490 ng/mL; Tmax (clinical; 230 mg/m2, Tmax): 3 h; Tmax (clinical; 300 mg/m2, Tmax): 4 h
O=C(CCCCCCC(=O)Nc1ccccc1)NO [VOR, suberoylanilide hydroxamic acid] | 300 | 578 (200 – 821) ng/ml | 2.80 (2.23 – 5.90) hrs | 2.61 | 1790 | 422 | 2.62 | MTD of single-agent oral VOR [2]: 230 mg/m^2/day; time to maximum concentration [1]: 2 h; Cmax ([1]; po, 230 mg/m2): 390 (221 – 655) ng/ml; blood brain barrier crossing [3]: crosses the blood brain barrier
